Source: PMC11943303 (International Journal of Molecular Sciences, 2025)
“Also recorded” adds a separate entry of the source. Read-outs that look alike come from different tables or passages of the source.

Legend:
[1] = biological target: T1, transient outward potassium current, ITo (Rattus norvegicus, UniProt Q62897+Q63881); experiment: ITo current block (dose-response, I/V), whole-cell patch clamp in rat cardiomyocytes; assay type: cell-based, rat (Sprague Dawley); details: 15 min pre-incubation, n = 32, 6 animals; for IC50: Hill equation fit to Gmax,[X]/Gmax,[ctrl], partial block
T1 construct: INa and ITo were recorded from freshly isolated left ventricular cardiomyocytes; endogenous in cells; host or cells: freshly isolated left ventricular cardiomyocytes of adult Sprague Dawley rats
T1 sequence (Q63881 1-630): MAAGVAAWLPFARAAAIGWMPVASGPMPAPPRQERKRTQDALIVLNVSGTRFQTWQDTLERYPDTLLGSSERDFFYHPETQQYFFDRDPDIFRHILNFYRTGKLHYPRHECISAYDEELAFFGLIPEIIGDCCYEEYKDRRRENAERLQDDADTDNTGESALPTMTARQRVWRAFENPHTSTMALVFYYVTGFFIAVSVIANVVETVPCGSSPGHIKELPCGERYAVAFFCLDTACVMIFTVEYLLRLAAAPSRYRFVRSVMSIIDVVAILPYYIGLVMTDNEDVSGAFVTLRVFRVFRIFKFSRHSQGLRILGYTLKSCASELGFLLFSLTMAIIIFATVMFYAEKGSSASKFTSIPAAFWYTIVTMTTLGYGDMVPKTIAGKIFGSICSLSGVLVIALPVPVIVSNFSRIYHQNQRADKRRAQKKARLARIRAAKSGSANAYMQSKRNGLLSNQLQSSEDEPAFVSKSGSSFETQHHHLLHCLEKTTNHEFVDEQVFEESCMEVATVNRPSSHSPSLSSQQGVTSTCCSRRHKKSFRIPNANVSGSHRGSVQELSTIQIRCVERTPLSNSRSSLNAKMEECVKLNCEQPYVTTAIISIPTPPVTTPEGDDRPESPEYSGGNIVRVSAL
T1 sequence (Q62897 1-655): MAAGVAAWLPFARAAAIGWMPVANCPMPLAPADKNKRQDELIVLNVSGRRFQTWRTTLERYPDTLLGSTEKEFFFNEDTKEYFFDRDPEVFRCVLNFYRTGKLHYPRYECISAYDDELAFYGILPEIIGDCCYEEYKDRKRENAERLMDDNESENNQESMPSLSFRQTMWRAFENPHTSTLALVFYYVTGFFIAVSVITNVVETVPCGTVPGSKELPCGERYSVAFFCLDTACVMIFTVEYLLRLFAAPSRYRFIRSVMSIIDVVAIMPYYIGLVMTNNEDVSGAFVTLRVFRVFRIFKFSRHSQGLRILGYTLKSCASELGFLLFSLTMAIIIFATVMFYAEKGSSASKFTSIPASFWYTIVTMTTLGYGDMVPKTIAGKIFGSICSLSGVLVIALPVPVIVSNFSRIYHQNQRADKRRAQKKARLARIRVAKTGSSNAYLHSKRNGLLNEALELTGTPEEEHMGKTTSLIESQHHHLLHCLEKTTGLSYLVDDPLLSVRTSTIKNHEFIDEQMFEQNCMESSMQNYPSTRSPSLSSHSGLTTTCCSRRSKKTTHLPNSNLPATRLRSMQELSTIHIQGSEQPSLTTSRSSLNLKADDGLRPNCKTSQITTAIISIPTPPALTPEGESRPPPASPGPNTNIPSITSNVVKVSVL
T1 sequence (Q9JM59 1-270 partner): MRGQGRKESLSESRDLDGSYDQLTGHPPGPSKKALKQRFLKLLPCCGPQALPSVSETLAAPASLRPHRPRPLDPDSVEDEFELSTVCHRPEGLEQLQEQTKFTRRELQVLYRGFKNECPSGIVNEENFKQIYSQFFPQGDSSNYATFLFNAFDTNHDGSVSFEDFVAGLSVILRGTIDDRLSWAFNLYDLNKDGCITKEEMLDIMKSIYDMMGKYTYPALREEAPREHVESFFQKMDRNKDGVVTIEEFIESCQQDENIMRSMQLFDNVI
Procedure: Ventricular cardiomyocytes from adult rats were isolated by enzymatic dissociation as previously reported. Adult Sprague Dawley rats (Charles River, Montreal, QC, Canada) were heparinized (5000 U) and sedated with 2% Isoflurane in an oxygen chamber (2 L/min). Hearts were excised by thoracotomy and cannulated via the aorta to be mounted on a Langendorff perfusion apparatus. Hearts were initially perfused with standard calcium-free Tyrode solution [21] at 37 °C (3–5 min), at a rate of 13 mL/min, and pre-digested by perfusion with low-calcium (150 μM) Tyrode solution supplemented with 220–280 U/mg of low-trypsin collagenase type 2 (Worthington Biochemical, Toronto, ON, Canada) for less than 15 min.
Once removed from the Langendorf perfusion apparatus, the heart septum and left ventricle were cut and gently shaken for 3 min in a 50/50 solution (digestion sln/low-calcium Tyrode solution) to disperse the isolated cells. The supernatant of the cell solution was filtered, and cells were left to settle in a 15 mL conical tube. The procedure was repeated 4 times, and cells were divided into fractions. Cardiomyocyte pellets from each fraction were washed with low-calcium Tyrode solution. For the final washing, supernatant solution was removed and replaced by standard Kraftbrühe (KB) solution [21], and the cells were kept at 4 °C.
INa and ITo were recorded from freshly isolated left ventricular cardiomyocytes and TSA201 cells after 48 h of transfection at room temperature. Electrical currents were recorded using the patch-clamp technique in whole-cell configuration via an Axopatch 200B amplifier (Molecular Devices, Sunnyvale, CA, USA). Cardiomyocytes and TSA201 cells were pre-incubated with 2Nal during 15 min and continuously perfused during recordings. In preliminary experiments, we measured the onset of the block by 2Nal by initially superfusing with control solution and subsequently washing in 2Nal solution. Recordings were acquired at 10 kHz and filtered to 5 kHz (lowpass Bessel filter). Whole-cell capacitance and series resistance compensation (85%) were optimized to reduce the capacitive artifact and minimize voltage error. Analysis of the recordings was performed using the Clampex 10.7 analysis software.
Extracellular solution for ITo recordings in cardiomyocytes contained (in mM) 126 NaCl, 5.4 KCl, 1 MgCl2, 20 HEPES, 2 CaCl2, and 11 glucose. The pH and osmolarity were adjusted to 7.4 and 295–300 mOsm, respectively, using NaOH and sucrose. Pipette solution contained (in mM) 90 K-aspartate, 30 KCl, 1 MgCl2, 20 HEPES, 5 NaCl, 5 MgATP, 5.5 Glucose. The pH was adjusted with KOH to 7.3 and osmolarity to 295–300 mOsm. For ITo recordings in TSA201 cells, extracellular solution contained 130 NaCl, 5 KCl, 1 MgCl2, 2.8 Na-acetate, 10 HEPES, 1.8 CaCl2, and 10 glucose. […]

artery = details: by enhancing nitric oxide (NO) production in the endothelium; cited from earlier work
Text: (§1) Apelin is an endogenous peptide recognized for its therapeutic potential in hypertension and heart failure, as well as for its modulation of the endocrine system. This adipokine is primarily synthesized in adipose tissue but is also produced in the gastrointestinal tract, brain, kidney, lung, mammary glands, and cardiovascular system.

heart = details: cited from earlier work
Text: as §1

[2] = test system: rabbit left-atrium cardiomyocytes; design: method as in PMID 23106642; details: cited from earlier work
[3] = test system: ultra-rapid potassium current; design: method as in PMID 23106642; details: rabbit left-atrium cardiomyocytes; cited from earlier work
[4] = test system: cardiac sodium current (INa); details: cited from earlier work
Text: At this stage, we cannot distinguish how specific affinities of Kv4.2 or Kv4.3 for 2Nal modulate the overall effect on ITo amplitude in native cardiomyocytes. However, our observation of apparent EC50 differing between the peak and sustained co ...

[5] = test system: large conductance calcium-activated K^+ channels; details: cited from earlier work
[6] = test system: transient outward potassium current, ITo, and its sustained component, IKsus; design: method as in PMID 18424641, PMID 12215493; details: cited from earlier work
[7] = design: method as in PMID 10777510, PMID 18272843; details: isoforms identified in vivo; cited from earlier work

Compound: CSCC[C@H](NC(=O)[C@@H]1CCCN1C(=O)CNC(=O)[C@H](CCCCN)NC(=O)[C@H](Cc1c[nH]cn1)NC(=O)[C@H](CO)NC(=O)[C@H](CC(C)C)NC(=O)[C@H](CCCNC(=N)N)NC(=O)[C@@H]1CCCN1C(=O)[C@H](CCCNC(=N)N)NC(=O)[C@@H](N)CCC(N)=O)C(=O)N1CCC[C@H]1C(=O)N[C@@H](Cc1ccc2ccccc2c1)C(=O)O [2Nal]
- Maximum block of ITo,peak ([1]; peak component, Gmax ratio, holding −80 mV, 500 ms steps, mean ± SEM): 34.2 ± 5.6%
- IC50 ([1]; peak component, read-out: IC50 (half-maximal blocking concentration) for ITo,peak): 0.3 ± 0.1 nM
- Maximum block of ITo,sus ([1]; sustained component, Gmax ratio, holding −80 mV, 500 ms steps, mean ± SEM): 47 ± 9.2%
- IC50 ([1]; sustained component, read-out: IC50 (half-maximal blocking concentration) for ITo,sus): 0.024 ± 0.01 nM

Compound: apelin
- vasodilation (artery): triggers arterial vasodilation
- cardiac inotropic effect (heart): strong positive cardiac inotropic effects
- effect on action potential duration [2]: reduces action potential duration (APD)
- effect on ultra-rapid potassium current [3]: blocks the ultra-rapid potassium current
- effect on cardiac sodium current INa [4]: increase in INa; also recorded: modulate cardiac sodium current (INa) gating and enhance its amplitude
- effect on large conductance calcium-activated K+ channels [5]: inhibiting large conductance calcium-activated K^+ channels
- effect on ITo and IKsus [6]: no effects

Compound: apelin-36: predominant apelin isoform identified in vivo (LVQPRGSRNGPGPWQGGRRKFRRQRPRLSHKGPMPF; Apelin-36; UniProt Q9ULZ1 42-77, looked up)
- susceptibility to proteolysis [7]: highly susceptible to proteolysis
